The target in experiment [1] is T1, human B1R receptor (hB1R) (Homo sapiens, UniProt P46663).
T1 construct: host or cells: CHO K1 cells
T1 sequence (P46663 1-353): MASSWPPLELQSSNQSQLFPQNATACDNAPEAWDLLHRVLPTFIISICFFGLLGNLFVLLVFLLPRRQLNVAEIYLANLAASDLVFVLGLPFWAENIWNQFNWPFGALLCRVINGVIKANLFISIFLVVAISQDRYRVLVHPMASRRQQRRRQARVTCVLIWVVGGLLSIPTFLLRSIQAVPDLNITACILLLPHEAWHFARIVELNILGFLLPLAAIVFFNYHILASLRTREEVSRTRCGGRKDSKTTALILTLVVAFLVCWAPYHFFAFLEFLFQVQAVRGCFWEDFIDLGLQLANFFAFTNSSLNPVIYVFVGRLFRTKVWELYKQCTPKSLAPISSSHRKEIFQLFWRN
Put plainly: FLIPR Ca2+ assay on hB1R-transfected CHO K1 cells, antagonistic action. To be noted: CHO-K1, 10 μM test substance; agonist Lys-Des-Arg9-bradykinin 0.5 nM; % of maximum achievable inhibition; read-out: hB1R [10 μM] % inhibition. It counts as cell-based.

The target in experiment [2] is T2, B1R receptor of the rat (rB1R) (Rattus norvegicus, UniProt P97583).
T2 construct: host or cells: CHO K1 cells
T2 sequence (P97583 1-337): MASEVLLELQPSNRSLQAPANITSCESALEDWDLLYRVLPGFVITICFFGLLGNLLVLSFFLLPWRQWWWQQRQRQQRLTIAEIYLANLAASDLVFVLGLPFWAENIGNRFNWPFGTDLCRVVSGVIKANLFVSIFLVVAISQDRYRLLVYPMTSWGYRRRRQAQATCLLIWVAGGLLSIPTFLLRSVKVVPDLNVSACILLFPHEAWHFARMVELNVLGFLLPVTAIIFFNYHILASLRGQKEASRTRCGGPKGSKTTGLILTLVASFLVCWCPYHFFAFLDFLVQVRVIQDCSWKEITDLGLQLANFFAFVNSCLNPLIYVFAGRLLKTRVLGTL
Put plainly: FLIPR Ca2+ assay on rB1R-transfected CHO K1 cells, antagonistic action. It counts as cell-based. To be noted: CHO-K1, 10 μM test substance; agonist Des-Arg9-bradykinin 100 nM; % of maximum achievable inhibition; read-out: rB1R [10 μM] % inhibition.

Each structure is given as a SMILES string.

Broadly, the inhibition is the drop in the measured response relative to a control, in per cent.

Turning to `O=C(COC1CCCN(S(=O)(=O)c2c(Cl)cc(Cl)cc2Cl)C1)NC1CCC(c2ccccc2)(N2CCCC2)CC1` (stereo not drawn) [Compound 194, N-(4-phenyl-4-(pyrrolidin-1-yl)cyclohexyl)-2-(1-(2,4,6-trichlorophenylsulfonyl)piperidin-3-yloxy)acetamide], the inhibition at 10 µM in experiment [1] turned out to be 96%; in experiment [2] it was 33%.
Taken in the same sequence, the figures for `CN(C)C1(CCc2ccccc2)CCC(NC(=O)CC2c3ccccc3CCN2S(=O)(=O)c2ccc(Cl)c(Cl)c2)CC1` (stereo not drawn) [Compound 1, 2-(2-(3,4-dichlorophenylsulfonyl)-1,2,3,4-tetrahydroisoquinolin-1-yl)-N-(4-(dimethylamino)-4-phenethylcyclohexyl)acetamide] were 96% and 105%.
As to `CN1CCN(C2(Cc3ccccc3)CCC(CN(C)C(=O)COC3CCCN(S(=O)(=O)c4c(Cl)cc(Cl)cc4Cl)C3)CC2)CC1` (stereo not drawn) [Compound 175, N-((4-benzyl-4-(4-methylpiperazin-1-yl)cyclohexyl)methyl)-N-methyl-2-(1-(2,4,6-trichlorophenylsulfonyl)piperidin-3-yloxy)acetamide], the inhibition at 10 µM amounted to 97% in experiment [1] and 77% in experiment [2].
Taken in the same sequence, the figures for `CN(CCC1CCC(c2ccccc2)(N(C)C)CC1)C(=O)COCC1CCc2ccccc2N1S(=O)(=O)c1ccc(Cl)c(Cl)c1` (stereo not drawn) [Compound 111, 2-((1-(3,4-dichlorophenylsulfonyl)-1,2,3,4-tetrahydroquinolin-2-yl)methoxy)-N-(2-(4-(dimethylamino)-4-phenylcyclohexyl)ethyl)-N-methylacetamide] were 80% and 78%.
For `COc1cc(C)c(S(=O)(=O)N2CCCCC2COCC(=O)N2CCC(c3ccccc3)(N3CCN(C)CC3)CC2)c(C)c1` (stereo not drawn) [Compound 49, 2-((1-(4-methoxy-2,6-dimethylphenylsulfonyl)piperidin-2-yl)methoxy)-1-(4-(4-methylpiperazin-1-yl)-4-phenylpiperidin-1-yl)ethanone] the same measures were 103% and 100%.
For `CN(CCC1CCC(Cc2ccccc2)(N2CCCC2)CC1)C(=O)COCC1CCc2ccccc2N1S(=O)(=O)c1ccc(Cl)c(Cl)c1` (stereo not drawn) [Compound 104, N-(2-(4-benzyl-4-(pyrrolidin-1-yl)cyclohexyl)ethyl)-2-((1-(3,4-dichlorophenylsulfonyl)-1,2,3,4-tetrahydroquinolin-2-yl)methoxy)-N-methylacetamide] the same measures were 60% and 82%.
As for `CN1CCN(C2(c3cccc(F)c3)CCN(C(=O)COCC3CCc4ccccc4N3S(=O)(=O)c3ccc4ccccc4c3)CC2)CC1` (stereo not drawn) [Compound 228, 1-(4-(3-Fluorophenyl)-4-(4-methylpiperazin-1-yl)piperidin-1-yl)-2-((1-(naphthalen-2-ylsulfonyl)-1,2,3,4-tetrahydroquinolin-2-yl)methoxy)ethanone], the inhibition at 10 µM in experiment [1] came to 100%; in experiment [2], 101%.
For the molecule `COc1cc(C)c(S(=O)(=O)N(C)CCOCC(=O)NC2CCC(c3ccccc3)(N3CCCCC3)CC2)c(C)c1C` (stereo not drawn) [Compound 28, 2-(2-(4-methoxy-N,2,3,6-tetramethylphenylsulfonamido)ethoxy)-N-(4-phenyl-4-(piperidin-1-yl)cyclohexyl)acetamide], the inhibition at 10 µM came out at 60% in experiment [1] and 48% in experiment [2].
For `COc1cc(C)c(S(=O)(=O)N2CCCCC2COCC(=O)N(C)CCCC2CCC(c3ccccc3)(N3CCCC3)CC2)c(C)c1` (stereo not drawn) [Compound 32, 2-((1-(4-methoxy-2,6-dimethylphenylsulfonyl)piperidin-2-yl)methoxy)-N-methyl-N-(3-(4-phenyl-4-(pyrrolidin-1-yl)cyclohexyl)propyl)acetamide] the same measures were 104% and 102%.
For `COc1cc(C)c(S(=O)(=O)N(C)CCOCC(=O)NC2CCC(Cc3ccccc3)(N3CCOCC3)CC2)c(C)c1` (stereo not drawn) [Compound 171, N-(4-benzyl-4-morpholinocyclohexyl)-2-(2-(4-methoxy-N,2,6-trimethylphenylsulfonamido)ethoxy)acetamide], the inhibition at 10 µM in experiment [1] amounted to 75%; in experiment [2], 82%.
Turning to `COc1cc(C)c(S(=O)(=O)N2CCCC(COCC(=O)NC3CCC(c4ccccc4)(N4CCCC4)CC3)C2)c(C)c1` (stereo not drawn) [Compound 187, 2-((1-(4-methoxy-2,6-dimethylphenylsulfonyl)piperidin-3-yl)methoxy)-N-(4-phenyl-4-(pyrrolidin-1-yl)cyclohexyl)acetamide], the inhibition at 10 µM in experiment [1] amounted to 95%; in experiment [2], 63%.
Consider `COc1cc(C)c(S(=O)(=O)N(C)CCOCC(=O)N(C)CC2CCC(CCc3ccccc3)(N3CCCC3)CC2)c(C)c1` (stereo not drawn) [Compound 47, 2-(2-(4-methoxy-N,2,6-trimethylphenylsulfonamido)ethoxy)-N-methyl-N-((4-phenethyl-4-(pyrrolidin-1-yl)cyclohexyl)methyl)acetamide], for which the inhibition at 10 µM was determined as 102% in experiment [1] and 100% in experiment [2].
Regarding `CN(C)C1(c2cccc(F)c2)CCC(NC(=O)COCCN(C)S(=O)(=O)c2ccc(Cl)cc2Cl)CC1` (stereo not drawn) [Compound 21, 2-(2-(2,4-dichloro-N-methylphenylsulfonamido)ethoxy)-N-(4-(dimethylamino)-4-(3-fluorophenyl)cyclohexyl)acetamide], the inhibition at 10 µM in experiment [1] turned out to be 29%; in experiment [2], 67%.
With `Cc1cc(S(=O)(=O)N2CCCCC2CCC(=O)N2CCC(Cc3ccccc3)(N3CCN(C)CC3)CC2)c(C)cc1Cl` (stereo not drawn) [Compound 130, 1-(4-benzyl-4-(4-methylpiperazin-1-yl)piperidin-1-yl)-3-(1-(4-chloro-2,5-dimethylphenylsulfonyl)piperidin-2-yl)propan-1-one], the inhibition at 10 µM in experiment [1] was 102%; in experiment [2], 49%.
As for `CN(CCC1CCC(c2ccccc2)(N2CCCC2)CC1)C(=O)CC1CCCCN1S(=O)(=O)c1cccc(C(F)(F)F)c1` (stereo not drawn) [Compound 106, N-methyl-N-(2-(4-phenyl-4-(pyrrolidin-1-yl)cyclohexyl)ethyl)-2-(1-(3-(trifluoromethyl)phenylsulfonyl)piperidin-2-yl)acetamide], the inhibition at 10 µM in experiment [1] worked out at 101%; in experiment [2] it was 79%.
Regarding `COc1cc(C)c(S(=O)(=O)N2c3ccccc3OCC2COCC(=O)N2CCC(c3cccc(F)c3)(N3CCN(C)CC3)CC2)c(C)c1` (stereo not drawn) [Compound 221, 1-(4-(3-Fluorophenyl)-4-(4-methylpiperazin-1-yl)piperidin-1-yl)-2-((4-(4-methoxy-2,6-dimethylphenylsulfonyl)-3,4-dihydro-2H-benzo[b][1,4]oxazin-3-yl)methoxy)ethanone], the inhibition at 10 µM in experiment [1] and in experiment [2] was 99% each time.
Regarding `O=C(CC1c2ccccc2CCN1S(=O)(=O)c1ccc(Cl)c(Cl)c1)NC1CCC(Cc2ccccc2)(N2CCCCC2)CC1` (stereo not drawn) [Compound 15, N-(4-benzyl-4-(piperidin-1-yl)cyclohexyl)-2-(2-(3,4-dichlorophenylsulfonyl)-1,2,3,4-tetrahydroisoquinolin-1-yl)acetamide], the inhibition at 10 µM was 55% in experiment [1] and 82% in experiment [2].
Taken in the same sequence, the figures for `COc1cc(C)c(S(=O)(=O)N2CCC(OCC(=O)N3CCC(c4cccc(F)c4)(N4CCN(C)CC4)CC3)C2)c(C)c1` (stereo not drawn) [Compound 217, 1-(4-(3-Fluorophenyl)-4-(4-methylpiperazin-1-yl)piperidin-1-yl)-2-(1-(4-methoxy-2,6-dimethylphenylsulfonyl)pyrrolidin-3-yloxy)ethanone] were 100% and 98%.
As for `COc1cc(C)c(S(=O)(=O)N2CCCC[C@H]2COCC(=O)N(C)CCC2CCC(c3ccccc3)(N3CCCC3)CC2)c(C)c1` (stereo partly drawn) [Compound 200, (S)-2-((1-(4-methoxy-2,6-dimethylphenylsulfonyl)piperidin-2-yl)methoxy)-N-methyl-N-(2-(4-phenyl-4-(pyrrolidin-1-yl)cyclohexyl)ethyl)acetamide], the values for the inhibition at 10 µM in experiment [1] and in experiment [2] were 99% and 105%, respectively.
On to `CN(CC1CCC(Cc2ccccc2)(N2CCCC2)CC1)C(=O)CC(NS(=O)(=O)c1ccc2ccccc2c1)c1ccccc1` (stereo not drawn) [Compound 112, N-((4-benzyl-4-(pyrrolidin-1-yl)cyclohexyl)methyl)-N-methyl-3-(naphthalene-2-sulfonamido)-3-phenylpropanamide], for which the inhibition at 10 µM is 97% in experiment [1] and 77% in experiment [2].
For `COc1cc(C)c(S(=O)(=O)N2CCCC2COCC(=O)NC2CCC(Cc3ccccc3)(N3CCOCC3)CC2)c(C)c1` (stereo not drawn) [Compound 159, N-(4-benzyl-4-morpholinocyclohexyl)-2-((1-(4-methoxy-2,6-dimethylphenylsulfonyl)pyrrolidin-2-yl)methoxy)acetamide] the same measures were 45% and 98%.

These data come from patent US20090253669A1, “Substituted Sulfonamide Compounds” (GRUENENTHAL GmbH, priority 2008, published 2009).
